{"source": "paper PMC5218480", "about": "(PLoS ONE, 2017)", "system": "MV-4-11 cells", "assay": "Gene expression microarray analysis (Affymetrix PrimeView) and GSEA", "type": "cell-based, human", "parameters": "RFU PODN (11730768_x_at) / Fold change /veh PODN (11730768_x_at) / RFU LINC00158 (11744669_a_at) / Fold change /veh LINC00158 (11744669_a_at) / RFU DUSP10 (11751237_a_at) / Fold change /veh DUSP10 (11751237_a_at) / RFU ID3 (11757404_x_at) / Fold change /veh ID3 (11757404_x_at) / RFU PLEKHG5 (11737974_s_at) / Fold change /veh PLEKHG5 (11737974_s_at) / RFU LRRC4B (11730491_at) / Fold change /veh LRRC4B (11730491_at) / RFU GIMAP4 (11747438_a_at) / Fold change /veh GIMAP4 (11747438_a_at) / RFU KRT8 (11758183_x_at) / Fold change /veh KRT8 (11758183_x_at) / RFU CNN1 (11734310_a_at) / Fold change /veh CNN1 (11734310_a_at) / RFU VPS37D (11726825_at) / Fold change /veh VPS37D (11726825_at) / RFU C10orf10 (11716522_x_at) / Fold change /veh C10orf10 (11716522_x_at) / RFU KIR2DL2 /// KIR2DL4 /// KIR2DL5A /// KIR2DL5B /// KIR2DS1 /// KIR2DS2 /// KIR2DS3 /// KIR2DS4 /// KIR3DL3 /// KIR3DL3 /// KIR3DS1 (11738374_at) / Fold change /veh KIR2DL2 /// KIR2DL4 /// KIR2DL5A /// KIR2DL5B /// KIR2DS1 /// KIR2DS2 /// KIR2DS3 /// KIR2DS4 /// KIR3DL3 /// KIR3DL3 /// KIR3DS1 (11738374_at) / RFU C1QL1 (11718748_at) / Fold change /veh C1QL1 (11718748_at) / RFU TMPRSS4 (11747572_a_at) / Fold change /veh TMPRSS4 (11747572_a_at) / RFU HAMP (11756126_x_at) / Fold change /veh HAMP (11756126_x_at) / RFU RNFT2 (11725882_a_at) / Fold change /veh RNFT2 (11725882_a_at) / RFU NR4A2 (11747474_a_at) / Fold change /veh NR4A2 (11747474_a_at) / RFU ABCC12 (11746883_a_at) / Fold change /veh ABCC12 (11746883_a_at) / RFU TMEM136 (11760407_x_at) / Fold change /veh TMEM136 (11760407_x_at) / RFU CLDN22 /// WWC2 (11732394_at) / Fold change /veh CLDN22 /// WWC2 (11732394_at) / RFU HLA-DPB1 (11760878_x_at) / Fold change /veh HLA-DPB1 (11760878_x_at) / RFU SPINT1 (11716480_a_at) / Fold change /veh SPINT1 (11716480_a_at) / RFU GAP43 (11754022_s_at) / Fold change /veh GAP43 (11754022_s_at) / RFU A4GNT (11735810_at) / Fold change /veh A4GNT (11735810_at) / RFU PRB3 (11715151_x_at) / Fold change /veh PRB3 (11715151_x_at) / RFU TUBB4B (11761932_at) / Fold change /veh TUBB4B (11761932_at) / RFU CAPN14 (11732068_a_at) / Fold change /veh CAPN14 (11732068_a_at) / RFU TMCC2 (11721928_a_at) / Fold change /veh TMCC2 (11721928_a_at) / RFU IRGQ (11745062_a_at) / Fold change /veh IRGQ (11745062_a_at) / RFU FAM174B (11720279_a_at) / Fold change /veh FAM174B (11720279_a_at) / RFU TMPRSS4 (11748680_a_at) / Fold change /veh TMPRSS4 (11748680_a_at) / RFU FAM212B (11763350_a_at) / Fold change /veh FAM212B (11763350_a_at) / RFU PLEKHG5 (11743358_a_at) / Fold change /veh PLEKHG5 (11743358_a_at) / RFU ZSCAN30 (11745921_a_at) / Fold change /veh ZSCAN30 (11745921_a_at) / RFU CMKLR1 (11741424_a_at) / Fold change /veh CMKLR1 (11741424_a_at) / RFU LOC101060620 /// MAPK8IP1 (11723275_at) / Fold change /veh LOC101060620 /// MAPK8IP1 (11723275_at) / RFU SPTSSB (11747773_x_at) / Fold change /veh SPTSSB (11747773_x_at) / RFU PRSS12 (11739890_at) / Fold change /veh PRSS12 (11739890_at) / RFU BIN1 (11741810_x_at) / Fold change /veh BIN1 (11741810_x_at) / RFU WNT11 (11732464_a_at) / Fold change /veh WNT11 (11732464_a_at) / RFU C10orf10 (11716521_a_at) / Fold change /veh C10orf10 (11716521_a_at) / RFU C5orf56 (11738089_at) / Fold change /veh C5orf56 (11738089_at) / RFU CYB561 (11721691_x_at) / Fold change /veh CYB561 (11721691_x_at) / RFU ANKRD19P (11752326_a_at) / Fold change /veh ANKRD19P (11752326_a_at) / RFU OR2T12 /// OR2T33 /// OR2T8 (11738714_s_at) / Fold change /veh OR2T12 /// OR2T33 /// OR2T8 (11738714_s_at) / RFU VCAN (11748164_a_at) / Fold change /veh VCAN (11748164_a_at) / RFU JSRP1 (11732532_at) / Fold change /veh JSRP1 (11732532_at) / RFU KRTAP10-11 (11738290_x_at) / Fold change /veh KRTAP10-11 (11738290_x_at) / RFU MYO3A (11730013_a_at) / Fold change /veh MYO3A (11730013_a_at) / RFU EBF3 (11725865_a_at) / Fold change /veh EBF3 (11725865_a_at) / RFU CAMK2N1 (11719241_x_at) / Fold change /veh CAMK2N1 (11719241_x_at) / RFU C5orf56 (11738088_a_at) / Fold change /veh C5orf56 (11738088_a_at) / RFU OLFML3 (11715873_a_at) / Fold change /veh OLFML3 (11715873_a_at) / RFU LOC100653217 /// NTM (11731650_a_at) / Fold change /veh LOC100653217 /// NTM (11731650_a_at) / RFU MAPK11 (11762145_a_at) / Fold change /veh MAPK11 (11762145_a_at) / RFU FIZ1 (11724087_x_at) / Fold change /veh FIZ1 (11724087_x_at) / RFU OASL (11726364_x_at) / Fold change /veh OASL (11726364_x_at) / RFU SOX15 (11748057_x_at) / Fold change /veh SOX15 (11748057_x_at) / RFU CD79A (11719716_a_at) / Fold change /veh CD79A (11719716_a_at) / RFU HIST1H1D (11736915_at) / Fold change /veh HIST1H1D (11736915_at) / RFU CASKIN2 (11723855_a_at) / Fold change /veh CASKIN2 (11723855_a_at) / RFU LOC730098 (11760151_x_at) / Fold change /veh LOC730098 (11760151_x_at) / RFU OR4N2 (11742367_at) / Fold change /veh OR4N2 (11742367_at) / RFU PRRT2 (11749266_a_at) / Fold change /veh PRRT2 (11749266_a_at) / RFU SNX32 (11753110_a_at) / Fold change /veh SNX32 (11753110_a_at) / RFU CDHR5 (11726645_a_at) / Fold change /veh CDHR5 (11726645_a_at) / RFU RCAN1 (11760418_a_at) / Fold change /veh RCAN1 (11760418_a_at) / RFU FAM167A (11723789_a_at) / Fold change /veh FAM167A (11723789_a_at) / RFU FAM26E (11764081_at) / Fold change /veh FAM26E (11764081_at) / RFU ISYNA1 (11749810_s_at) / Fold change /veh ISYNA1 (11749810_s_at) / RFU ACY1 (11761880_at) / Fold change /veh ACY1 (11761880_at) / RFU 11764098_at / Fold change /veh 11764098_at / RFU SAMD14 (11745864_x_at) / Fold change /veh SAMD14 (11745864_x_at) / RFU NPB (11741838_a_at) / Fold change /veh NPB (11741838_a_at) / RFU TMPRSS6 (11731388_a_at) / Fold change /veh TMPRSS6 (11731388_a_at) / RFU KRTAP10-2 (11738614_at) / Fold change /veh KRTAP10-2 (11738614_at) / RFU ARHGAP8 /// PRR5-ARHGAP8 (11727945_x_at) / Fold change /veh ARHGAP8 /// PRR5-ARHGAP8 (11727945_x_at) / RFU KRTAP5-7 /// NADSYN1 (11734609_at) / Fold change /veh KRTAP5-7 /// NADSYN1 (11734609_at) / RFU RASL12 (11751679_a_at) / Fold change /veh RASL12 (11751679_a_at) / RFU CDKN2B (11736163_a_at) / Fold change /veh CDKN2B (11736163_a_at) / RFU PRF1 (11729649_at) / Fold change /veh PRF1 (11729649_at) / RFU, ZNF638 /// ZNF638-IT1 / Fold change vs veh, ZNF638 /// ZNF638-IT1 / RFU, PANK3 / Fold change vs veh, PANK3 / RFU, SH3YL1 / Fold change vs veh, SH3YL1 / RFU, ZEB2 / Fold change vs veh, ZEB2 / RFU, NRIP1 / Fold change vs veh, NRIP1 / RFU, PTTG1IP / Fold change vs veh, PTTG1IP / RFU, CAPN2 / Fold change vs veh, CAPN2 / RFU, MED14 / Fold change vs veh, MED14 / RFU, SNORA58 / Fold change vs veh, SNORA58 / RFU, C1orf63 / Fold change vs veh, C1orf63 / RFU, LRRFIP1 / Fold change vs veh, LRRFIP1 / RFU, NDUFAF7 / Fold change vs veh, NDUFAF7 / RFU, SLC12A2 / Fold change vs veh, SLC12A2 / RFU, IBTK / Fold change vs veh, IBTK / RFU, ESF1 / Fold change vs veh, ESF1 / Fold change vs veh, TMEM50B / RFU, TAOK1 / Fold change vs veh, TAOK1 / RFU, ACBD3 / Fold change vs veh, ACBD3 / RFU, TMA16 / Fold change vs veh, TMA16 / RFU, RWDD3 / Fold change vs veh, RWDD3 / RFU, BCAT1 / Fold change vs veh, BCAT1 / RFU, EDEM3 / Fold change vs veh, EDEM3 / RFU, TMEM33 / Fold change vs veh, TMEM33 / RFU, WDR75 / Fold change vs veh, WDR75 / RFU, AHCTF1 / Fold change vs veh, AHCTF1 / RFU, TFRC / Fold change vs veh, TFRC / RFU, ZDHHC17 / Fold change vs veh, ZDHHC17 / RFU, NOM1 / Fold change vs veh, NOM1 / RFU, ARL8B / Fold change vs veh, ARL8B / RFU, ZBTB11 / Fold change vs veh, ZBTB11 / RFU, TAMM41 / Fold change vs veh, TAMM41 / RFU, KIAA1704 /// LOC100996395 / Fold change vs veh, KIAA1704 /// LOC100996395 / RFU, ING1 / Fold change vs veh, ING1 / RFU, TRMT61B / Fold change vs veh, TRMT61B / RFU, FUBP3 / Fold change vs veh, FUBP3 / RFU, TP53 / Fold change vs veh, TP53 / RFU, TNKS2 / Fold change vs veh, TNKS2 / RFU, ZFP14 / Fold change vs veh, ZFP14 / RFU, ACTR2 / Fold change vs veh, ACTR2 / RFU, PPP3R1 / Fold change vs veh, PPP3R1 / RFU, PIK3R1 / Fold change vs veh, PIK3R1 / RFU, HNRNPA1 / Fold change vs veh, HNRNPA1 / RFU, RNF170 / Fold change vs veh, RNF170 / RFU, ZNF28 / Fold change vs veh, ZNF28 / RFU, RNGTT / Fold change vs veh, RNGTT / RFU, OGT / Fold change vs veh, OGT / RFU, BRD1 / Fold change vs veh, BRD1 / RFU, MARS / Fold change vs veh, MARS / RFU, ZNF655 / Fold change vs veh, ZNF655 / RFU, FAHD1 / Fold change vs veh, FAHD1 / RFU, BDP1 / Fold change vs veh, BDP1 / RFU, LRRCC1 / Fold change vs veh, LRRCC1 / RFU, ARID1A / Fold change vs veh, ARID1A / RFU, ZNF146 / Fold change vs veh, ZNF146 / RFU, ZNF330 / Fold change vs veh, ZNF330 / RFU, GPN3 / Fold change vs veh, GPN3 / RFU, C9orf123 / Fold change vs veh, C9orf123 / RFU, N4BP2L2 / Fold change vs veh, N4BP2L2 / RFU, ARFIP1 / Fold change vs veh, ARFIP1 / RFU, FAM179B / Fold change vs veh, FAM179B / RFU, BCL10 / Fold change vs veh, BCL10 / RFU, UHRF1BP1L / Fold change vs veh, UHRF1BP1L / RFU, BET1 / Fold change vs veh, BET1 / RFU, CNOT2 / Fold change vs veh, CNOT2 / RFU, ZNF268 / Fold change vs veh, ZNF268 / Fold change vs veh, ZNF507 / RFU, DGCR2 / Fold change vs veh, DGCR2 / RFU, WDSUB1 / Fold change vs veh, WDSUB1 / Fold change vs veh, HSP90B1 /// MIR3652 / RFU, ADSS / Fold change vs veh, ADSS / RFU, GK / Fold change vs veh, GK / RFU, ZNF148 / Fold change vs veh, ZNF148 / RFU, TAF9 / Fold change vs veh, TAF9 / RFU, SLC1A5 / Fold change vs veh, SLC1A5 / RFU, SLMO2 / Fold change vs veh, SLMO2 / RFU, ABCC4 / Fold change vs veh, ABCC4 / RFU, LOC101060439 /// RAP1B / Fold change vs veh, LOC101060439 /// RAP1B / RFU, RFX7 / Fold change vs veh, RFX7 / RFU, GTPBP10 / Fold change vs veh, GTPBP10 / RFU, CNEP1R1 / Fold change vs veh, CNEP1R1 / RFU, BIVM-ERCC5 /// ERCC5 / Fold change vs veh, BIVM-ERCC5 /// ERCC5 / RFU, ILF3 / Fold change vs veh, ILF3 / RFU 11762660_at / Fold change /veh 11762660_at / RFU VCAN (11757783_s_at) / Fold change /veh VCAN (11757783_s_at) / RFU DDX43 (11728927_at) / Fold change /veh DDX43 (11728927_at) / RFU KRT8 (11758188_x_at) / Fold change /veh KRT8 (11758188_x_at) / RFU NKD1 (11759106_at) / Fold change /veh NKD1 (11759106_at) / RFU SRD5A1 (11742802_a_at) / Fold change /veh SRD5A1 (11742802_a_at) / RFU TPSAB1 /// TPSB2 (11721975_s_at) / Fold change /veh TPSAB1 /// TPSB2 (11721975_s_at) / RFU GSTM3 (11746129_a_at) / Fold change /veh GSTM3 (11746129_a_at) / RFU IL23R (11737362_x_at) / Fold change /veh IL23R (11737362_x_at) / RFU TMEM51 (11727254_a_at) / Fold change /veh TMEM51 (11727254_a_at) / RFU PIWIL2 (11732686_x_at) / Fold change /veh PIWIL2 (11732686_x_at) / RFU ORM1 (11744905_x_at) / Fold change /veh ORM1 (11744905_x_at) / RFU CCDC152 (11743942_at) / Fold change /veh CCDC152 (11743942_at) / RFU ECM1 (11717891_a_at) / Fold change /veh ECM1 (11717891_a_at) / RFU IL23R (11748794_a_at) / Fold change /veh IL23R (11748794_a_at) / RFU TNFAIP8L3 (11732012_x_at) / Fold change /veh TNFAIP8L3 (11732012_x_at) / RFU MBOAT4 (11741988_at) / Fold change /veh MBOAT4 (11741988_at) / RFU 11764193_at / Fold change /veh 11764193_at / RFU TMEM53 (11763286_at) / Fold change /veh TMEM53 (11763286_at) / RFU MAGEB2 (11727129_at) / Fold change /veh MAGEB2 (11727129_at) / RFU TMEM200A (11744735_a_at) / Fold change /veh TMEM200A (11744735_a_at) / RFU CCDC152 (11751479_a_at) / Fold change /veh CCDC152 (11751479_a_at) / RFU FAM211A (11726209_a_at) / Fold change /veh FAM211A (11726209_a_at) / RFU RGS16 (11746705_a_at) / Fold change /veh RGS16 (11746705_a_at) / RFU VCAN (11755009_s_at) / Fold change /veh VCAN (11755009_s_at) / RFU RHOB (11743442_s_at) / Fold change /veh RHOB (11743442_s_at) / RFU RGS16 (11720943_a_at) / Fold change /veh RGS16 (11720943_a_at) / RFU RGS16 (11720944_at) / Fold change /veh RGS16 (11720944_at) / RFU, VPS4B / Fold change vs veh, VPS4B / RFU, CREB1 / Fold change vs veh, CREB1 / RFU, DNAJC13 / Fold change vs veh, DNAJC13 / RFU, GNAQ / Fold change vs veh, GNAQ / RFU, CDK5R1 / Fold change vs veh, CDK5R1 / RFU, ZRANB3 / Fold change vs veh, ZRANB3 / RFU, CUL4A / Fold change vs veh, CUL4A / RFU, CCNY / Fold change vs veh, CCNY / RFU, UFL1 / Fold change vs veh, UFL1 / RFU, COG3 / Fold change vs veh, COG3 / RFU, DIAPH2 / Fold change vs veh, DIAPH2 / RFU, SKA2 / Fold change vs veh, SKA2 / RFU, AFF3 / Fold change vs veh, AFF3 / RFU, LMF1 / Fold change vs veh, LMF1 / RFU, IPO11 / Fold change vs veh, IPO11 / RFU, DFFB / Fold change vs veh, DFFB / RFU, FOXP1 / Fold change vs veh, FOXP1 / RFU, CARD8 / Fold change vs veh, CARD8 / RFU, STRN3 / Fold change vs veh, STRN3 / RFU, ADK / Fold change vs veh, ADK / RFU, RASSF2 / Fold change vs veh, RASSF2 / RFU, WIPF1 / Fold change vs veh, WIPF1 / RFU, LARP1B / Fold change vs veh, LARP1B / RFU, RASA1 / Fold change vs veh, RASA1 / RFU, RB1 / Fold change vs veh, RB1 / RFU, PPFIA1 / Fold change vs veh, PPFIA1 / RFU, MAT2A / Fold change vs veh, MAT2A / RFU, CCT5 / Fold change vs veh, CCT5 / RFU, WDR92 / Fold change vs veh, WDR92 / RFU, CUX1 / Fold change vs veh, CUX1 / RFU, TTC7A / Fold change vs veh, TTC7A / RFU, TMEM135 / Fold change vs veh, TMEM135 / RFU, DEPTOR / Fold change vs veh, DEPTOR / RFU, CPM / Fold change vs veh, CPM / RFU, DNAJB6 / Fold change vs veh, DNAJB6 / RFU, CACNA2D3 / Fold change vs veh, CACNA2D3 / RFU, DTX4 / Fold change vs veh, DTX4 / RFU, TFCP2 / Fold change vs veh, TFCP2 / RFU, GMCL1 /// GMCL1P1 / Fold change vs veh, GMCL1 /// GMCL1P1 / RFU, AEBP2 / Fold change vs veh, AEBP2 / RFU, SNHG1 /// SNORD22 /// SNORD25 /// SNORD26 /// SNORD27 /// SNORD28 /// SNORD29 /// SNORD31 / Fold change vs veh, SNHG1 /// SNORD22 /// SNORD25 /// SNORD26 /// SNORD27 /// SNORD28 /// SNORD29 /// SNORD31 / Fold change (Aza/veh), C12orf56 (ProbeSet 11735607_a_at) / Fold change (ACY-1035/veh), C12orf56 (ProbeSet 11735607_a_at) / Fold change (Aza/veh), FGFR1OP (ProbeSet 11751329_s_at) / Fold change (ACY-1035/veh), FGFR1OP (ProbeSet 11751329_s_at) / Fold change (Aza/veh), VPS36 (ProbeSet 11739960_a_at) / Fold change (ACY-1035/veh), VPS36 (ProbeSet 11739960_a_at) / RFU SYPL1 (11715823_x_at) / Fold change /veh SYPL1 (11715823_x_at) / RFU IGFBP7 (11715501_s_at) / Fold change /veh IGFBP7 (11715501_s_at) / RFU REEP3 (11722064_at) / Fold change /veh REEP3 (11722064_at) / RFU IGLL1 (11728026_x_at) / Fold change /veh IGLL1 (11728026_x_at): dose or concentration left out as unconfirmed", "settings": "ProbeSet 11731583_a_at; LIST D"}
{"smiles": "Nc1ccc(-c2cccs2)cc1NC(=O)c1ccc2c(c1)cc(C1CC1)n2CCN1CCOCC1", "note": "[ACY-1035]", "values": [{"measurement": "RFU, LARP1B", "result": 84.89, "unit": "RFU"}]}
